Assay results published in the NIST ThermoML archive (doi:10.1016/j.jct.2011.11.021).
Numbers after ± are expanded uncertainties.

Test: activity coefficient (dimensionless); of the first substance listed, at infinite dilution; xn = mol fraction of the nth substance listed
Settings: Liquid, Chromatography, x1 = 0

SMILES | activity coefficient (318.15 K) | activity coefficient (328.15 K) | activity coefficient (338.15 K) | activity coefficient (348.15 K) | activity coefficient (358.15 K) | activity coefficient (368.15 K)
Cc1ccccc1C [1,2-dimethylbenzene] + COCC[N+]1(C)CCOCC1.O=S(=O)([N-]S(=O)(=O)C(F)(F)F)C(F)(F)F | 2.75 ± 0.19 | 2.71 ± 0.18 | 2.68 ± 0.18 | 2.65 ± 0.18 | 2.61 ± 0.18 | 2.58 ± 0.18
Cc1cccc(C)c1 [1,3-dimethylbenzene] + COCC[N+]1(C)CCOCC1.O=S(=O)([N-]S(=O)(=O)C(F)(F)F)C(F)(F)F | 3.05 ± 0.21 | 3.02 ± 0.21 | 2.99 ± 0.2 | 2.97 ± 0.2 | 2.94 ± 0.2 | 2.92 ± 0.2
Cc1ccc(C)cc1 [1,4-dimethylbenzene] + COCC[N+]1(C)CCOCC1.O=S(=O)([N-]S(=O)(=O)C(F)(F)F)C(F)(F)F | 3.09 ± 0.21 | 3.06 ± 0.21 | 3.03 ± 0.21 | 3 ± 0.2 | 2.98 ± 0.2 | 2.96 ± 0.2
C1COCCO1 [1,4-dioxane] + COCC[N+]1(C)CCOCC1.O=S(=O)([N-]S(=O)(=O)C(F)(F)F)C(F)(F)F | 0.57 ± 0.041 | 0.596 ± 0.042 | 0.615 ± 0.043 | 0.638 ± 0.044 | 0.653 ± 0.045 | 0.674 ± 0.046
C=CCCCCCCCC [1-decene] + COCC[N+]1(C)CCOCC1.O=S(=O)([N-]S(=O)(=O)C(F)(F)F)C(F)(F)F | 87.8 ± 6 | 78.8 ± 5.4 | 72.1 ± 4.9 | 65.7 ± 4.5 | 59.4 ± 4.1 | 54.9 ± 3.8
C=CCCCCC [1-heptene] + COCC[N+]1(C)CCOCC1.O=S(=O)([N-]S(=O)(=O)C(F)(F)F)C(F)(F)F | 24.9 ± 1.7 | 23 ± 1.6 | 21.7 ± 1.5 | 20.3 ± 1.4 | 19 ± 1.3 | 18.1 ± 1.2
C#CCCCCC [1-heptyne] + COCC[N+]1(C)CCOCC1.O=S(=O)([N-]S(=O)(=O)C(F)(F)F)C(F)(F)F | 7.44 ± 0.51 | 7.24 ± 0.49 | 7.09 ± 0.48 | 6.94 ± 0.47 | 6.79 ± 0.46 | 6.65 ± 0.45
C#CCCCC [1-hexyne] + COCC[N+]1(C)CCOCC1.O=S(=O)([N-]S(=O)(=O)C(F)(F)F)C(F)(F)F | 4.88 ± 0.33 | 4.8 ± 0.33 | 4.75 ± 0.32 | 4.7 ± 0.32 | 4.65 ± 0.32 | 4.61 ± 0.31
CCC[N+](=O)[O-] [1-nitropropane] + COCC[N+]1(C)CCOCC1.O=S(=O)([N-]S(=O)(=O)C(F)(F)F)C(F)(F)F | – | 0.791 ± 0.051 | 0.787 ± 0.051 | 0.783 ± 0.051 | 0.78 ± 0.051 | 0.778 ± 0.051
C#CCCCCCC [1-octyne] + COCC[N+]1(C)CCOCC1.O=S(=O)([N-]S(=O)(=O)C(F)(F)F)C(F)(F)F | 11.4 ± 0.8 | 11 ± 0.8 | 10.6 ± 0.7 | 10.3 ± 0.7 | 9.93 ± 0.68 | 9.67 ± 0.66
C=CCCC [1-pentene] + COCC[N+]1(C)CCOCC1.O=S(=O)([N-]S(=O)(=O)C(F)(F)F)C(F)(F)F | 11 ± 0.8 | 10.3 ± 0.7 | 9.79 ± 0.67 | 9.25 ± 0.63 | 8.83 ± 0.6 | 8.35 ± 0.57
CC(C)CC(C)(C)C [2,2,4-trimethylpentane] + COCC[N+]1(C)CCOCC1.O=S(=O)([N-]S(=O)(=O)C(F)(F)F)C(F)(F)F | 55.9 ± 3.8 | 49.5 ± 3.4 | 45 ± 3.1 | 40.8 ± 2.8 | 37.2 ± 2.5 | 34.1 ± 2.3
CCC(C)(C)C [2,2-dimethylbutane] + COCC[N+]1(C)CCOCC1.O=S(=O)([N-]S(=O)(=O)C(F)(F)F)C(F)(F)F | 32.4 ± 2.2 | 28.4 ± 1.9 | 25.7 ± 1.8 | 23.2 ± 1.6 | 21.2 ± 1.4 | 19.5 ± 1.3
CCOC(C)(C)C [2-ethoxy-2-methylpropane] + COCC[N+]1(C)CCOCC1.O=S(=O)([N-]S(=O)(=O)C(F)(F)F)C(F)(F)F | 9.5 ± 0.65 | 9.21 ± 0.63 | 8.97 ± 0.61 | 8.75 ± 0.6 | 8.49 ± 0.58 | 8.3 ± 0.57
CCC(C)(C)OC [2-methoxy-2-methylbutane] + COCC[N+]1(C)CCOCC1.O=S(=O)([N-]S(=O)(=O)C(F)(F)F)C(F)(F)F | 5.55 ± 0.38 | 5.5 ± 0.37 | 5.43 ± 0.37 | 5.37 ± 0.37 | 5.32 ± 0.36 | 5.28 ± 0.36
COC(C)(C)C [2-methoxy-2-methylpropane] + COCC[N+]1(C)CCOCC1.O=S(=O)([N-]S(=O)(=O)C(F)(F)F)C(F)(F)F | 3.53 ± 0.24 | 3.55 ± 0.24 | 3.57 ± 0.24 | 3.58 ± 0.24 | 3.59 ± 0.24 | 3.6 ± 0.25

SMILES | activity coefficient (318.15 K) | activity coefficient (328.15 K) | activity coefficient (338.15 K) | activity coefficient (348.15 K) | activity coefficient (358.15 K) | activity coefficient (368.15 K)
CC(C)CO [2-methyl-1-propanol] + COCC[N+]1(C)CCOCC1.O=S(=O)([N-]S(=O)(=O)C(F)(F)F)C(F)(F)F | 3.19 ± 0.22 | 2.81 ± 0.19 | 2.51 ± 0.17 | 2.25 ± 0.15 | 2.04 ± 0.14 | 1.89 ± 0.13
CC(C)(C)O [2-methylpropan-2-ol] + COCC[N+]1(C)CCOCC1.O=S(=O)([N-]S(=O)(=O)C(F)(F)F)C(F)(F)F | 2.22 ± 0.15 | 2.03 ± 0.14 | 1.88 ± 0.13 | 1.75 ± 0.12 | 1.62 ± 0.11 | 1.52 ± 0.1
CCC(C)CC [3-methylpentane] + COCC[N+]1(C)CCOCC1.O=S(=O)([N-]S(=O)(=O)C(F)(F)F)C(F)(F)F | 32.3 ± 2.2 | 29 ± 2 | 26.3 ± 1.8 | 23.9 ± 1.6 | 21.9 ± 1.5 | 20.2 ± 1.4
C=C(C)c1ccccc1 [(1-methylethenyl)benzene] + COCC[N+]1(C)CCOCC1.O=S(=O)([N-]S(=O)(=O)C(F)(F)F)C(F)(F)F | – | 2.74 ± 0.19 | 2.76 ± 0.19 | 2.78 ± 0.19 | 2.79 ± 0.19 | 2.81 ± 0.19
CC(=O)O [acetic acid] + COCC[N+]1(C)CCOCC1.O=S(=O)([N-]S(=O)(=O)C(F)(F)F)C(F)(F)F | – | 0.451 ± 0.036 | 0.456 ± 0.036 | 0.459 ± 0.036 | 0.465 ± 0.036 | 0.468 ± 0.037
CC(C)=O [acetone] + COCC[N+]1(C)CCOCC1.O=S(=O)([N-]S(=O)(=O)C(F)(F)F)C(F)(F)F | 0.43 ± 0.035 | 0.442 ± 0.036 | 0.451 ± 0.036 | 0.461 ± 0.036 | 0.47 ± 0.037 | 0.48 ± 0.037
CC#N [acetonitrile] + COCC[N+]1(C)CCOCC1.O=S(=O)([N-]S(=O)(=O)C(F)(F)F)C(F)(F)F | 0.423 ± 0.035 | 0.426 ± 0.035 | 0.428 ± 0.035 | 0.431 ± 0.035 | 0.433 ± 0.035 | 0.436 ± 0.035
c1ccccc1 [benzene] + COCC[N+]1(C)CCOCC1.O=S(=O)([N-]S(=O)(=O)C(F)(F)F)C(F)(F)F | 1.33 ± 0.09 | 1.32 ± 0.09 | 1.32 ± 0.09 | 1.32 ± 0.09 | 1.31 ± 0.09 | 1.31 ± 0.09
CCCCO [butan-1-ol] + COCC[N+]1(C)CCOCC1.O=S(=O)([N-]S(=O)(=O)C(F)(F)F)C(F)(F)F | 3.31 ± 0.23 | 2.94 ± 0.2 | 2.66 ± 0.18 | 2.4 ± 0.16 | 2.18 ± 0.15 | 2.02 ± 0.14
CCC(C)O (centres undefined) [butan-2-ol] + COCC[N+]1(C)CCOCC1.O=S(=O)([N-]S(=O)(=O)C(F)(F)F)C(F)(F)F | 2.76 ± 0.19 | 2.47 ± 0.17 | 2.26 ± 0.15 | 2.06 ± 0.14 | 1.9 ± 0.13 | 1.78 ± 0.12
CCCC=O [butanal] + COCC[N+]1(C)CCOCC1.O=S(=O)([N-]S(=O)(=O)C(F)(F)F)C(F)(F)F | 0.871 ± 0.056 | 0.884 ± 0.056 | 0.891 ± 0.057 | 0.902 ± 0.057 | 0.909 ± 0.058 | 0.918 ± 0.058
C1CCCCCC1 [cycloheptane] + COCC[N+]1(C)CCOCC1.O=S(=O)([N-]S(=O)(=O)C(F)(F)F)C(F)(F)F | 26.2 ± 1.8 | 23.6 ± 1.6 | 21.5 ± 1.5 | 19.7 ± 1.3 | 18.1 ± 1.2 | 16.6 ± 1.1
C1CCCCC1 [cyclohexane] + COCC[N+]1(C)CCOCC1.O=S(=O)([N-]S(=O)(=O)C(F)(F)F)C(F)(F)F | 18.8 ± 1.3 | 17 ± 1.2 | 15.6 ± 1.1 | 14.4 ± 1 | 13.3 ± 0.9 | 12.3 ± 0.8
C1=CCCCC1 [cyclohexene] + COCC[N+]1(C)CCOCC1.O=S(=O)([N-]S(=O)(=O)C(F)(F)F)C(F)(F)F | 9.14 ± 0.62 | 8.62 ± 0.59 | 8.21 ± 0.56 | 7.84 ± 0.53 | 7.45 ± 0.51 | 7.08 ± 0.48
C1CCCCCCC1 [cyclooctane] + COCC[N+]1(C)CCOCC1.O=S(=O)([N-]S(=O)(=O)C(F)(F)F)C(F)(F)F | 36.6 ± 2.5 | 32.6 ± 2.2 | 29.6 ± 2 | 26.7 ± 1.8 | 24.2 ± 1.7 | 22.1 ± 1.5
C1CCCC1 [cyclopentane] + COCC[N+]1(C)CCOCC1.O=S(=O)([N-]S(=O)(=O)C(F)(F)F)C(F)(F)F | 12.2 ± 0.8 | 11.2 ± 0.8 | 10.4 ± 0.7 | 9.68 ± 0.66 | 9.1 ± 0.62 | 8.54 ± 0.58
